Experimental data taken from the NIST ThermoML archive (doi:10.1016/j.jct.2015.03.001).

Legend:
[1] = refractive index (Na D-line) (dimensionless); xn = mol fraction of the nth substance listed; details: 99 kPa, Liquid, Abbe refractometer
[2] = relative permittivity at various frequencies (dimensionless); xn = mol fraction of the nth substance listed; details: 99 kPa, Liquid, Frequency=2 MHz, Parallel plate capacitor

CCCCCl [1-chlorobutane] + CCCCCCC
Details	refractive index, 283.15 K	refractive index, 298.15 K	refractive index, 313.15 K	relative permittivity, 283.15 K	relative permittivity, 298.15 K	relative permittivity, 313.15 K
[1], x2 = 0	1.4075	1.3995	1.39131	–	–	–
[1], x2 = 0.0503	1.40636	1.39837	1.39019	–	–	–
[1], x2 = 0.1023	1.40522	1.39724	1.38907	–	–	–
[1], x2 = 0.201	1.40318	1.39522	1.38708	–	–	–
[1], x2 = 0.3012	1.40132	1.39338	1.38527	–	–	–
[1], x2 = 0.4003	1.39966	1.39175	1.38367	–	–	–
[1], x2 = 0.4985	1.3982	1.39033	1.38227	–	–	–
[1], x2 = 0.5963	1.39694	1.38909	1.38108	–	–	–
[1], x2 = 0.7037	1.39573	1.38793	1.37996	–	–	–
[1], x2 = 0.82	1.39458	1.38682	1.3789	–	–	–
[1], x2 = 0.9094	1.39373	1.386	1.37811	–	–	–
[1], x2 = 0.949	1.39337	1.38565	1.37778	–	–	–
[2], x2 = 0	–	–	–	7.552	7.157	6.757
[2], x2 = 0.0484	–	–	–	7.201	6.84	6.47
[2], x2 = 0.101	–	–	–	6.808	6.475	6.132
[2], x2 = 0.1965	–	–	–	6.051	5.77	5.492
[2], x2 = 0.2708	–	–	–	5.486	5.243	5.005
[2], x2 = 0.4005	–	–	–	4.601	4.417	4.237
[2], x2 = 0.5038	–	–	–	3.999	3.855	3.715
[2], x2 = 0.5995	–	–	–	3.52	3.404	3.299
[2], x2 = 0.6978	–	–	–	3.089	3.001	2.921
[2], x2 = 0.805	–	–	–	2.665	2.608	2.545
[2], x2 = 0.897	–	–	–	2.327	2.287	2.247
[2], x2 = 0.9475	–	–	–	2.138	2.112	2.079
